Data as given in patent publication US11617740B2, “Chemical inhibitors of Mycobacterium tuberculosis DosRST signaling and persistence” (priority 2017, dated 2023).
Converted amounts (≈) assume the structure as drawn. “Also recorded” adds a separate entry of the source. Where two headings read alike, the source gives them in different places.

Tests used:
DosS = DosS (Mycobacterium tuberculosis, UniProt P9WGK3); experiment: DosS autophosphorylation assay; format: biochemical; details: 10-40 μM; HC103A 40 μM
DosS, sequence (P9WGK3 whole entry): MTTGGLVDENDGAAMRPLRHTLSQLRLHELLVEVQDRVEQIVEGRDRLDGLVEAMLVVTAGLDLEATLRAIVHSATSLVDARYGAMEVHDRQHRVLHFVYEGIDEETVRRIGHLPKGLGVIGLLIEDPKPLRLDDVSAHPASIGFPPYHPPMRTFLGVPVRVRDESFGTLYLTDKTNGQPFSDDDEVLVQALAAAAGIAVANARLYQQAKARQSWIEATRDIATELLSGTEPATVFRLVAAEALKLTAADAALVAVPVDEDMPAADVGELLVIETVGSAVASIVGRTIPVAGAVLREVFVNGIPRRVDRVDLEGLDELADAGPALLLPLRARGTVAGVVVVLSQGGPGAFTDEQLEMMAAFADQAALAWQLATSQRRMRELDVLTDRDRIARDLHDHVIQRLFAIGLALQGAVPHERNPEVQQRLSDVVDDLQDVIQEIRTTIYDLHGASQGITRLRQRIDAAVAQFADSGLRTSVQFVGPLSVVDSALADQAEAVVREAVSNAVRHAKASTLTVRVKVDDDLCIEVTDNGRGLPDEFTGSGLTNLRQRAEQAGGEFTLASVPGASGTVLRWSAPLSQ
Method: Autophosphorylation assay. The DosS autophosphorylation assay was performed as previously described. DosS protein was treated with 10 μM, 20 μM or 40 μM of HC104A, or HC106A. DMSO and 40 μM HC103A were also included as […].

Mtb = format: cell-based, Mycobacterium tuberculosis
TAG accumulation in Mtb = format: cell-based; details: 40 μM, 6 d, vs DMSO treated WT
[1] = system: DosRST pathway, CDC1551 (hspX′::GFP) reporter strain; experiment: microbe, parasite or virus in culture; format: cell-based; details: for EC50: Mycobacterium tuberculosis
[2] = system: DosR regulated genes dosR, hspX, tgs1; format: cell-based; details: for inhibition of hspX and tgs1 gene expression during hypoxia: 10 μM, real-time PCR; for downregulation of dosR / downregulation of hspX / downregulation of tgs1: 40 μM, 6 d, in vitro
DosR regulon = format: cell-based; details: WT CDC1551, 40 μM; for genes from dosR regulon inhibited: >2-fold, q<0.05
[3] = system: DosR-regulated genes hspX and tgs1; format: cell-based; details: pretreated 24 h; for inhibition of hspX following DETA-NONOate treatment / inhibition of tgs1 following DETA-NONOate treatment: DETA-NONOate 2 h; for inhibition of hspX transcripts following vitamin C treatment / inhibition of tgs1 transcripts following vitamin C treatment: vitamin C 2 h
Mtb CDC1551 = format: cell-based; details: for survival relative to DMSO control during NRP: 40 μM, 10 days
DosR = DosR (Mycobacterium tuberculosis, UniProt P9WMF9); experiment: Electrophoretic mobility shift assay (EMSA), DosR binding of hspX promoter DNA
DosR, sequence (P9WMF9 whole entry, looked up): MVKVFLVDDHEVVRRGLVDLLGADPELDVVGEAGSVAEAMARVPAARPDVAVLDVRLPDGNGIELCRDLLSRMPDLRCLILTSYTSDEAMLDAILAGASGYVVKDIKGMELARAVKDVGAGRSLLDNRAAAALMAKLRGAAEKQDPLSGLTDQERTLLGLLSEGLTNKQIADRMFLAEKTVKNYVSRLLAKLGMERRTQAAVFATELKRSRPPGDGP

[4] = system: DosR-controlled genes hspX and tgs1; format: cell-based; details: 40 μM, 48 h, infected macrophages
[5] = system: DosR-regulated genes hspX and tgs1; format: cell-based; details: 20 μM, 6 d
[6] = system: DosRST signaling, CDC1551 (hspX′::GFP); experiment: microbe, parasite or virus in culture; format: cell-based
[7] = not given; remark: listed apart in the source
[8] = 144 h, CDC1551 (hspX′::GFP), 6 d, read-out: EC50 of DosRST-dependent GFP fluorescence inhibition (FI)

O=C(Nc1cccc(O)c1)c1cccc(NC(=O)c2cccs2)c1 [HC103A, reference compound]
effect on DosS autophosphorylation (DosS): strongly inhibited

CN(C)CCCN1C(=O)c2cccc3c(Br)ccc(c23)C1=O [HC104A]
impact on Mtb growth (Mtb): minimal impact | reduction of TAG accumulation (TAG accumulation in Mtb): ~50% | effect on DosS autophosphorylation (DosS): no inhibitory activity; also recorded: inhibitory activity was not observed; also recorded: no effect | EC50 [1, 8]: 9.8 µM | EC50 ([1]; Table 3, HC104 series, whole cell assay, read-out: EC50): 9.8 µM | inhibition of hspX and tgs1 gene expression during hypoxia [2]: strongly inhibited | downregulation of dosR [2]: 6 fold | downregulation of hspX [2]: 570 fold | downregulation of tgs1 [2]: 13 fold | additional genes repressed that were not repressed in CDC1551(ΔdosR) (DosR regulon): 119 genes | genes from dosR regulon inhibited (DosR regulon): 26 genes | inhibition of hspX following DETA-NONOate treatment [3]: 302 fold | inhibition of tgs1 following DETA-NONOate treatment [3]: 6.6 fold | inhibition of hspX transcripts following vitamin C treatment [3]: 3.4 fold | inhibition of tgs1 transcripts following vitamin C treatment [3]: no effect | survival relative to DMSO control during NRP (Mtb CDC1551): no impact on Mtb survival | concentration at which inhibition of DosR DNA binding begins (DosR; 2 μM DosR, doses 1-80 μM): 10 µM | % free DNA (DosR; 20 μM, 2 μM DosR): 72% | % free DNA (DosR; 30 μM, 2 μM DosR): 89% | % free DNA (DosR; 40 μM, 2 μM DosR): 92% | inhibition of DosR DNA binding compared to DMSO (DosR; 40 μM, 2 μM DosR): ~22 fold | % free DNA (DosR; 60 μM, 2 μM DosR): 96% | % free DNA (DosR; 80 μM, 2 μM DosR (normalised as 100%)): 100% | IC50 (DosR; preliminary, data not shown, read-out: IC50 for inhibition of DosR-DNA binding): ~10 µM | inhibition of hspX induction [4]: 185 fold | inhibition of tgs1 induction [4]: 10 fold

O=C(Nc1ccno1)Nc1ccc(Cl)cc1Cl [HC106A]
impact on Mtb growth (Mtb): minimal impact | reduction of TAG accumulation (TAG accumulation in Mtb): ~50% | effect on DosS autophosphorylation (DosS): no inhibitory activity; also recorded: no effect | inhibition of hspX and tgs1 gene expression during hypoxia [2]: repressed to undetectable levels | inhibition of hspX and tgs1 gene expression during hypoxia ([2]; listed as H106A): strongly inhibited | downregulation of dosR [2]: 49 fold | downregulation of hspX [2]: 1360 fold | downregulation of tgs1 [2]: 1424 fold | inhibition of hspX, DosS overexpression ([5]; pVV16-DosS): 23 fold | inhibition of tgs1, DosS overexpression ([5]; pVV16-DosS): 16.5 fold | downregulation of hspX, vector control ([5]; pVV16 empty vector): 2331 fold | downregulation of tgs1, vector control ([5]; pVV16 empty vector): 3470 fold | additional genes repressed that were not repressed in CDC1551(ΔdosR) (DosR regulon): 35 genes | genes from dosR regulon inhibited (DosR regulon): 53 genes | solubility (physchem): 110 µM (≈ 29.9 µg/mL) | inhibition of hspX following DETA-NONOate treatment [3]: 362 fold | inhibition of tgs1 following DETA-NONOate treatment [3]: 151 fold | inhibition of hspX transcripts following vitamin C treatment [3]: 78 fold | inhibition of tgs1 transcripts following vitamin C treatment [3]: 14 fold | effect on DosRST signaling alone ([6]; 200 nM HC106A alone): no effect on its own | survival relative to DMSO control during NRP (Mtb CDC1551): 50% | reduction of survival as compared to DMSO control (Mtb CDC1551; hypoxic shift-down model): 50% | inhibition of hspX induction [4]: 6 fold | inhibition of tgs1 induction [4]: 4 fold

O=C(Nc1ccc(Cl)cc1)Nc1ccno1 [HC106F, 1-(4-chlorophenyl)-3-(1,2-oxazol-5-yl)urea]
fold enhanced activity relative to HC106A [1]: ~10 fold | fold enhanced activity relative to HC106A ([1]; whole cell assay): ~2 fold | Microsomes (% remaining @ 30 minutes) (microsomes, 0.5 h): 115% remaining | solubility (physchem): > 200 µM | melting point [7]: 183 °C

COc1ccc(NC(=O)Nc2ccno2)cc1 [MSU-39447, 1-(4-methoxyphenyl)-3-(1,2-oxazol-5-yl)urea]
EC50 [1, 8]: 0.61 µM | solubility (physchem): > 100 µM | melting point [7]: 166 to 167 °C

O=C(Nc1ccc(C(F)(F)F)cc1)Nc1ccno1 [MSU-41463, 3-(1,2-oxazol-5-yl)-1-[4-(trifluoromethyl)phenyl]urea]
Microsomes (% remaining @ 30 minutes) (30 minutes): 84 % remaining | melting point [7]: 178 °C

O=C(Nc1ccc(Br)cc1)Nc1ccno1 [MSU-41464, 1-(4-bromophenyl)-3-(1,2-oxazol-5-yl)urea]
Microsomes (% remaining @ 30 minutes) (30 minutes): 109% remaining | melting point [7]: 183 to 184 °C

COC(=O)c1ccc(NC(=O)Nc2ccno2)cc1 [MSU-41465, methyl 4-{[(1,2-oxazol-5-yl)carbamoyl]amino}benzoate]
Microsomes (% remaining @ 30 minutes) (microsomes, 0.5 h): 73 % remaining | melting point [7]: 194 °C

C[C@@H]1CC[C@H]2[C@@H](C)C(=O)O[C@@H]3O[C@@]4(C)CC[C@@H]1[C@]32OO4 [artemisinin, reference compound]
maximum inhibition of hspX ([2]; maximum inhibition): 51 fold | maximum inhibition of tgs1 ([2]; maximum inhibition): 166 fold | inhibition at 0.5 µM ([6]; Mycobacterium tuberculosis, 500 nM artemisinin alone): 40%
